Data on two compounds can be found in patent publication US20240050601A1, “COMPOSITIONS AND ASSOCIATED METHODS FOR SUSTAINED-RELEASE OF RADIOACTIVE AGENTS AND THEIR APPLICATIONS” (priority 2020, published 2024).

Data set [1] is described as follows: in vivo. The conditions noted are these: Balb/C, mouse.
Description: The hydrogel was prepared, kept in a 4° C. refrigerator overnight ensuring a complete mixing, and balanced to ambient temperature prior to the administration. The molecular weight of ICG is 775 Da, which was used here as an example of small molecule. Two animal groups with different route of subcutaneous (s.c.) or intramuscular (i.m.) injection was assessed with an injection volume of 500 μl or 50 μl, respectively. The imaging was conducted for the animals immediately after hydrogel administration (within 1 minute), and then at predetermined time points of post injection.
The test system of data set [2] is myeloproliferative neoplasms (MPNs). The conditions noted are these: low dose range (5-7 mCi per intravenous injection, total up to 4 injections); cited from earlier work.

On to `CC1(C)C(/C=C/C=C/C=C/C=C2\N(CCCCS(=O)(=O)O)c3ccc4ccccc4c3C2(C)C)=[N+](CCCCS(=O)(=O)[O-])c2ccc3ccccc3c21` [TCG, indocyanine green], for which the half-life (usually the time in which the quantity being followed falls by half) in data set [1] (im, 50 μl) is approximately 4 h; in data set [1] (sc, 500 μl), approximately 24 h.
Consider `O=[32P](O)(O)O` [phosphate P-32], for which the “tolerability and efficacy in MPNs” value in data set [2] is “well-tolerated and efficacious”.
